pIC50: −log10 of the molar value. Where only a bound is given, the exact number is not on record here.

In assay [1] the test system is Caco-2. Put plainly: Antiproliferative activity against human Caco2 cells by MTT assay. In kind it is functional, cell-based.
Assay [2] concerns the target T1, Prostaglandin G/H synthase 1 (Ovis aries, UniProt P05979).
T1 sequence (P05979 whole entry): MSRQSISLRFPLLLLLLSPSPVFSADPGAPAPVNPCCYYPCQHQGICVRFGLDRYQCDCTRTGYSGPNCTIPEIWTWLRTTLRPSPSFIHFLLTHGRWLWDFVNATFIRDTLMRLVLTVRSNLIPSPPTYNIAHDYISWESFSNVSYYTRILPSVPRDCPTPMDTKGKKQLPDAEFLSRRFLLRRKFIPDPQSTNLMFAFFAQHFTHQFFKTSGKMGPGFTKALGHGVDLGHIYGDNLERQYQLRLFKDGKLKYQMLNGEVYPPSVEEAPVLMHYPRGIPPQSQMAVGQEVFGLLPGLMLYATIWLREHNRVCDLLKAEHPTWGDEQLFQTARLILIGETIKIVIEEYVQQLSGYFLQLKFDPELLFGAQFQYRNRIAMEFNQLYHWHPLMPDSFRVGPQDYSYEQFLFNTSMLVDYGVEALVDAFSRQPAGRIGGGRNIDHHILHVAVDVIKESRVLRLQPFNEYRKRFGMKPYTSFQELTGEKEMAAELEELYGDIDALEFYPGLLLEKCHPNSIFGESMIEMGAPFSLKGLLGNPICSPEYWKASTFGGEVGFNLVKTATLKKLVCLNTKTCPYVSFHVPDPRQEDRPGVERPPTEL
Put plainly: Inhibition of ovine COX1 using arachidonic acid as substrate incubated for 5 mins followed by substrate addition measured after 2 mins by colorimetric based ELISA. (ELISA stands for enzyme-linked immunosorbent assay.)

The subject of assay [3] is HeLa. In words: Antiproliferative activity against human HeLa cells by MTT assay. In kind it is functional, cell-based. (Tetrazolium assays rely on reduction of a dye to a coloured formazan, in cell work by metabolically active cells.)
In assay [4] the test system is HCT-116. Put plainly: Antiproliferative activity against human HCT116 cells by MTT assay. In kind it is functional, cell-based.
For assay [5], the system named is MDA-MB-231. Put plainly: Antiproliferative activity against human MDA231 cells by MTT assay. In kind it is functional, cell-based.
The subject of assay [6] is MCF7. In words: Antiproliferative activity against human MCF7 cells by MTT assay. Type of assay: functional, cell-based.

Compound `COc1cccc2c1C(=O)c1c(O)c3c(c(O)c1C2=O)C[C@@](O)(C(=O)CO)C[C@@H]3O[C@H]1C[C@H](N)[C@H](O)[C@H](C)O1` [DOXORUBICIN] had a pIC50 in assay [1] of 4.57.
As to `COc1ccc2cc(C(C)c3n[nH]c(=S)n3N)ccc2c1` (stereo not drawn), the negative-log IC50 (pIC50) in assay [2] was less than 4.60; in assay [3] it was 4.68; in assay [4] it was 4.22; in assay [5], 4.38; in assay [1], 4.11; in assay [6], 4.42.
Regarding `Cc1ccc(-c2cc(C(F)(F)F)nn2-c2ccc(S(N)(=O)=O)cc2)cc1` [CELECOXIB], the negative-log IC50 (pIC50) in assay [3] is 4.44; in assay [4] it was 4.53; in assay [5] it was 4.64; in assay [1], 4.37; in assay [6], 4.50.
Taken in the same sequence, the figures for `COc1ccc2cc(C(C)C(=O)NN=C3CCN(C)CC3)ccc2c1` (stereo not drawn) were 4.29, 4.08, 4.14, less than 4.00 and 4.16.
`COc1ccc2cc(C(C)c3n[nH]c(=S)n3/N=C/c3ccc(O)cc3)ccc2c1` (stereo not drawn): the negative-log IC50 (pIC50) in assay [2] is less than 4.60; in assay [3] it was 5.04; in assay [4], 5.29; in assay [5], 5.32; in assay [1], 4.86; in assay [6], 5.11.
For `COc1ccc2cc(C(C)C(=O)NN3C(=O)c4ccccc4C3=O)ccc2c1` (stereo not drawn), the negative-log IC50 (pIC50) in assay [2] is less than 4.60; in assay [3], 4.10; in assay [4], 4.30; in assay [5] it was 4.43; in assay [1], 4.23; in assay [6], 4.10.
Turning to `COc1ccc2cc(C(C)C(=O)NN=C3CCCC3)ccc2c1` (stereo not drawn), the pIC50 is 4.16 in assay [3]; less than 4.00 in assay [4]; 4.09 in assay [5]; less than 4.00 in assay [1]; 4.15 in assay [6].
As for `COc1ccc2cc(C(C)c3n[nH]c(=S)n3/N=C/c3cccc(Br)c3)ccc2c1` (stereo not drawn), the pIC50 in assay [2] was less than 4.60; in assay [3], 4.92; in assay [4] it was 5.06; in assay [5], 5.09; in assay [1], 4.80; in assay [6] it was 5.03.
For the compound `COc1ccc2cc(C(C)c3nnc(SC4CCCC4)o3)ccc2c1` (stereo not drawn), the negative logarithm of the IC50 (pIC50) in assay [2] is less than 4.60; in assay [3], 4.31; in assay [4], 4.47; in assay [5], 4.63; in assay [1] it was 4.29; in assay [6] it was 4.33.
For `COc1ccc2cc(C(C)c3nnc4n3NC(=O)CS4)ccc2c1` (stereo not drawn), the negative-log IC50 (pIC50) in assay [3] is 4.06; in assay [4], less than 4.00; in assay [5], 4.03; in assay [1], less than 4.00; in assay [6], 4.07.
For `CN(C)C/C=C/C(=O)Nc1cc2c(Nc3ccc(F)c(Cl)c3)ncnc2cc1O[C@H]1CCOC1` [AFATINIB], the pIC50 in assay [3] was 5.21; in assay [4], 4.94; in assay [5] it was 5.12; in assay [1], 5.11; in assay [6] it was 5.15.
Consider `COc1ccc2cc(C(C)C(=O)NN3C(=O)C=CC3=O)ccc2c1` (stereo not drawn), for which the negative-log IC50 (pIC50) in assay [2] was less than 4.60; in assay [3], 4.82; in assay [4], 4.66; in assay [5], 4.96; in assay [1] it was 4.40; in assay [6], 4.66.
Turning to `COc1ccc2cc(C(C)C(=O)NN=C3CCCCC3)ccc2c1` (stereo not drawn), the pIC50 in assay [2] was less than 4.60; in assay [3] it was 4.89; in assay [4], 4.84; in assay [5] it was 5.02; in assay [1], 4.73; in assay [6], 4.92.
Take `COc1ccc2cc(C(C)c3nnc(-c4ccc([N+](=O)[O-])cc4)o3)ccc2c1` (stereo not drawn): the pIC50 in assay [2] is less than 4.60; in assay [3] it was 4.45; in assay [4], 4.12; in assay [5], 4.18; in assay [1], less than 4.00; in assay [6] it was 4.38.
On to `COc1ccc2cc(C(C)c3nnc(-c4ccc(O)cc4)o3)ccc2c1` (stereo not drawn), for which the negative-log IC50 (pIC50) is less than 4.60 in assay [2]; 5.21 in assay [3]; 4.98 in assay [4]; 5.14 in assay [5]; 4.47 in assay [1]; 5.23 in assay [6].
With `COc1ccc2cc(C(C)c3nnc(-c4ccc(C)cc4)o3)ccc2c1` (stereo not drawn), the pIC50 in assay [2] is less than 4.60; in assay [3], 4.71; in assay [4], 4.55; in assay [5] it was 4.79; in assay [1] it was 4.36; in assay [6] it was 4.50.
`COc1ccc2cc(C(C)c3nnc4n3N=C(c3ccccc3)CS4)ccc2c1` (stereo not drawn): the figures for the negative-log IC50 (pIC50) in assay [4], in assay [5] and in assay [1] were 4.17, 4.31 and 4.09, respectively.
As to `COc1ccc2cc(C(C)C(=O)NN=C3CCCCCC3)ccc2c1` (stereo not drawn), the negative-log IC50 (pIC50) was less than 4.60 in assay [2]; 4.23 in assay [3]; 4.35 in assay [4]; 4.49 in assay [5]; 4.34 in assay [1]; 4.32 in assay [6].
With `COc1ccc2cc(C(C)c3nnc(SC)o3)ccc2c1` (stereo not drawn), the pIC50 in assay [2] was less than 4.60; in assay [3], 4.58; in assay [4], 4.40; in assay [5] it was 4.53; in assay [1], 4.13; in assay [6], 4.24.
With `COc1ccc2cc(C(C)c3nnc(SCc4ccccc4)o3)ccc2c1` (stereo not drawn), the pIC50 is less than 4.00 in assay [3]; less than 4.00 in assay [4]; 4.05 in assay [5]; less than 4.00 in assay [1]; 4.04 in assay [6].
In the case of `COc1ccc2cc(C(C)c3n[nH]c(=S)n3/N=C/c3ccccc3)ccc2c1` (stereo not drawn), the negative-log IC50 (pIC50) in assay [2] was less than 4.60; in assay [3], 4.18; in assay [4] it was 4.72; in assay [5], 4.83; in assay [1], 4.55; in assay [6] it was 4.21.
With `COc1ccc2cc(C(C)C(=O)NN3C(=O)CCC3=O)ccc2c1` (stereo not drawn), the negative-log IC50 (pIC50) in assay [2] was less than 4.60; in assay [3] it was 4.52; in assay [4], 4.25; in assay [5], 4.28; in assay [1], 4.20; in assay [6], 4.57.

What is called pIC50 is the negative decadic logarithm of the IC50, by convention in mol/L. Read a low pIC50 as a high IC50.

(Values after ChEMBL document CHEMBL4265919, “Structural alterations based on naproxen scaffold: Synthesis, evaluation of antitumor activity and COX-2 inhibition, and molecular docking” (Eur J Med Chem, 2018).)
